Tested on: carbonic anhydrase (CAII)
Assay: furosemide binding on immobilized CAII, Epic biosensor (Example 3)
Conditions: cystine in combination with glycine
Protocol: Step 3. Binding of protein inhibitor: The plate was equilibrated at ambient (25° C.) temperature for about 30 min before rinsing with PBS (on Biomek, following standard rinsing protocol). The plate was centrifuged and soaked in 0.1% DMSO in PBS for about 4 h at ambient temperature.
The plate was then read in the Epic® instrument for 20 min.

- binding: over 10 pm
SMILES: NS(=O)(=O)c1cc(C(=O)O)c(NCc2ccco2)cc1Cl [furosemide]
